Results from patent US7906282B2, “Synthetic nucleic acid molecule compositions and methods of preparation” (Promega Corporation, priority 2000, dated 2011).
Where two headings read alike, the source gives them in different places.

How the values were obtained:
[1] = target: T1, synthetic red click beetle luciferase RD (RDver5.2; YG#81-6G01 variant A224H/S247H/N346I/H348Q/R351G), SEQ ID NO: 222 (Pyrophorus plagiophthalamus, UniProt Q718C1); assay: Km determination with partially purified enzyme (Table 3), RD; assay type: biochemical
T1 construct: C-terminal tail changed
T1 sequence (Q718C1 entry or part of it, stated change not applied): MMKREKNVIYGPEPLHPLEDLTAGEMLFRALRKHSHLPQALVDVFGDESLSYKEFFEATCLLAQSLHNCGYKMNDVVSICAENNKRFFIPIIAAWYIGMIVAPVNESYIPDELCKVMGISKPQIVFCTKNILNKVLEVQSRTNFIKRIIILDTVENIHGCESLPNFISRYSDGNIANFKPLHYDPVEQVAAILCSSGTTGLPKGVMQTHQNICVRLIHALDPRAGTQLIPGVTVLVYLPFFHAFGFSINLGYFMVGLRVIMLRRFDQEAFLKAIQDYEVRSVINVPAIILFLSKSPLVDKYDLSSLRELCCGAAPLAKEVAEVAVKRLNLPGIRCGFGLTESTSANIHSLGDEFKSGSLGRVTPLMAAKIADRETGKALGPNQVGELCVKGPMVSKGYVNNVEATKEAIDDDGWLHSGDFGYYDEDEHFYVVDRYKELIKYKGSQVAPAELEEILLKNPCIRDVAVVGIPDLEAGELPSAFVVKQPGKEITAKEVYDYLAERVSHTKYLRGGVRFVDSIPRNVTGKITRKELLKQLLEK
Source text: (§1) The parent click beetle luciferase YG#81-6G1 (“YG”), and the synthetic click beetle luciferase genes GRver5.1 (“GR”), RDver5.2 (“RD”), and RD156-1H9 were cloned into the four pGL3 reporter vectors (Promega Corp.): • pGL3-Basic=no promoter, no enhancer • pGL3-Control=SV40 promoter, SV40 enhancer • pGL3-Enhancer=SV40 enhancer (3′ to luciferase coding sequences) • pGL3-Promoter=SV40 promoter. The primers employed in the assembly of GR and RD synthetic genes facilitated the cloning of those genes into pRAM vectors. To introduce the genes into pGL3 vectors (Promega Corp., Madison, Wis.) for analysis in mammalian cells, each gene in a pRAM vector (pRAM RDver5.1, pRAM GRver5.1, and pRAM RD156-1H9) was amplified to introduce an Nco I site at the 5′ end and an Xba I site at the 3′ end of the gene. The primers for pRAM RDver5.1 and pRAM GRver5.1 were: […]
(§2) Partially purified enzymes expressed from the synthetic genes and the parent gene were employed to determine Km for luciferin and ATP (see Table 3).

[2] = test system: click beetle luciferase YG#81-6G01 (mutant of wild type LucPplYG, SEQ ID NO: 23), SEQ ID NO: 24; conditions: vs wild type LucPplYG; cited from earlier work
[3] = test system: MCF-7 cells; assay: TPA induction of Renilla luciferase co-reporter vectors in transfected MCF-7 cells (Table 13); assay type: cell-based; conditions: Homo sapiens, MCF7, 24 h, 0.2 nM TPA, vs untreated
Method: Experimental treatment sometimes may activate cryptic sites within the gene and cause induction or suppression of the co-reporter expression, which would compromise its function as co-reporter for normalization of transfection efficiencies. One example is that TPA induces expression of co-reporter vectors harboring the wild-type gene when transfecting MCF-7 cells. 500 ng pRL-TK (native), 5 μg native and synthetic pRG-B, 2.5 μg native and synthetic pRG-TK were transfected per well of MCF-7 cells. 100 ng/well pGL3-control (firefly luc+) was co-transfected with all RL plasmids. Carrier DNA, pUC19, was used to bring the total DNA transfected to 5.1 μg/well. 15.3 μl TransFast Transfection Reagent (Promega Corp., Madison, Wis.) was added per well. Sixteen hours later, cells were trypsinized, pooled and split into six wells of a 6-well dish and allowed to attach to the well for 8 hours. Three wells were then treated with the 0.2 nM of the tumor promoter, TPA (phorbol-12-myristate-13-acetate, Calbiochem #524400-S), and three wells were mock treated with 20 μl DMSO. Cells were harvested with 0.4 ml Passive Lysis Buffer 24 hours post TPA addition.

[4] = target: T2, click beetle luciferase RDver5.2 variant RD156-0B4 (Pyrophorus plagiophthalamus, UniProt Q718C1, A224Y/A287S/C127T/C60V/F45V, form not given/H348Q/I288V/I91V/K85T/L262F/N249T/N346I/S247H/V325A/V389I/Y183F); assay: Km for luciferin, lysates of bacterial cells (Table 6), RD156-0B4; assay type: biochemical; conditions: read-out: Km Luciferin, CCLR lysate diluted 1:10, HEPES pH 7.8
T2 construct: lysate of bacterial cells
Method: (§3) Protocols and procedures used for the directed evolution are detailed in see PCT/WO9914336. DNA from the four clones with lower Km was combined and three libraries of random mutants were produced. The libraries were screened with the robot and clones with the highest LI values were selected. These clones were shuffled together and another robotic screen was completed with an incubation temperature of 46° C. The three clones with the highest LI values were RD156-0B4, RD156-1A5, and RD156-1H9.
(§4) The Km values for luciferin and the luminescence intensity relative to RDver5.2 were determined for all three clones in several independent experiments. All cells samples were processed with CCLR lysis buffer (E1483, Promega Corp., Madison, Wis.) and diluted 1:10 into buffer (25 mM HEPES pH 7.8, 5% glycerol, 1 mg/ml BSA, 150 mM NaCl). Table 7 summarizes the results (Lum: luminescence values were normalized to optical density; measurements for independent experiments are separated by forward slashes) from expression in bacterial cells. RD156-1H9, the clone with the highest luminescence intensity (5 to 10-fold increase) also has an about 2-fold higher Km for luciferin.

[5] = target: T3, click beetle luciferase RDver5.2 variant RD156-1A5 (Pyrophorus plagiophthalamus, UniProt Q718C1, A224Y/A287S/C127T/C60V/F45V, form not given/H348Q/I288V/I91V/K85T/L262F/N249T/N346I/S247H/V325A/V389I/Y183F); assay: Km for luciferin, lysates of bacterial cells (Table 6), RD156-1A5; assay type: biochemical; conditions: read-out: Km Luciferin, CCLR lysate diluted 1:10, HEPES pH 7.8
T3 construct: lysate of bacterial cells
Method: as §3, §4

[6] = target: T4, click beetle luciferase RDver5.2 variant RD156-1H9 (M2I/S349T/K488T/E538V), SEQ ID NO: 223 (Pyrophorus plagiophthalamus, UniProt Q718C1); assay type: biochemical; conditions: for Km: read-out: Km Luciferin, CCLR lysate diluted 1:10, HEPES pH 7.8
T4 construct: C-terminal tail changed; lysate of bacterial cells
T4 sequence (Q718C1 entry or part of it, stated change not applied): as above
Method: Protocols and procedures used for the directed evolution are detailed in see PCT/WO9914336. […] The libraries were screened with the robot and clones with the highest LI values were selected. These clones were shuffled together and another robotic screen was completed with an incubation temperature of 46° C.
as §4, with “cells.” for “cells. RD156-1H9, the clone with the highest luminescence intensity (5 to 10-fold increase) also has an about 2-fold higher Km for luciferin.”

[7] = target: T5, synthetic red click beetle luciferase RDver5.2 (YG#81-6G01 variant A224H/S247H/N346I/H348Q/R351G), SEQ ID NO: 222 (Pyrophorus plagiophthalamus, UniProt Q718C1); assay: Km for luciferin, lysates of bacterial cells (Table 6), RDver5.2; assay type: biochemical; conditions: read-out: Km Luciferin, CCLR lysate diluted 1:10, HEPES pH 7.8
T5 construct: C-terminal tail changed; lysate of bacterial cells
T5 sequence (Q718C1 entry or part of it, stated change not applied): as above
Method: as §4

[8] = substrate: Nc1ncnc2c1ncn2[C@@H]1O[C@H](COP(=O)(O)OP(=O)(O)OP(=O)(O)O)[C@@H](O)[C@H]1O; assay: Km determination with partially purified enzyme (Table 3), YG parent; assay type: biochemical, Pyrophorus plagiophthalamus; conditions: other: partially purified enzyme
Source text: as §2

[9] = substrate: O=C(O)[C@H]1CSC(c2nc3ccc(O)cc3s2)=N1; assay: as above; assay type: biochemical, Pyrophorus plagiophthalamus; conditions: other: partially purified enzyme
Source text: as §2

[10] = substrate: Nc1ncnc2c1ncn2[C@@H]1O[C@H](COP(=O)(O)OP(=O)(O)OP(=O)(O)O)[C@@H](O)[C@H]1O; assay: Km determination with partially purified enzyme (Table 3), GR; assay type: biochemical, Pyrophorus plagiophthalamus; conditions: other: partially purified enzyme
Source text: as §1, §2

[11] = substrate: O=C(O)[C@H]1CSC(c2nc3ccc(O)cc3s2)=N1; assay: as above; assay type: biochemical, Pyrophorus plagiophthalamus; conditions: other: partially purified enzyme
Source text: as §1, §2

[12] = substrate: O=C(O)[C@H]1CSC(c2nc3ccc(O)cc3s2)=N1; assay: Km for luciferin, lysates of bacterial cells (Table 6), GRver5.1; assay type: biochemical, Pyrophorus plagiophthalamus
Method: as §4

With Nc1ncnc2c1ncn2[C@@H]1O[C@H](COP(=O)(O)OP(=O)(O)OP(=O)(O)O)[C@@H](O)[C@H]1O [ATP] as the molecule, how does the Km ([1]; read-out: KM (ATP)) read?
The Km was 46 µM.

And the “KM for ATP compared to the wild type” value [2]?
The value was “lower”.

For CCCCCCCCCCCCCC(=O)O[C@@H]1[C@@H](C)[C@@]2(O)[C@@H](C=C(CO)C[C@]3(O)C(=O)C(C)=C[C@@H]23)[C@@H]2C(C)(C)[C@]12OC(C)=O [TPA, phorbol-12-myristate-13-acetate], which fold induction ([3]; pRG-B (final, synthetic Renilla gene)) is on record?
The fold induction was 1.47.

What about the fold induction ([3]; pRG-B (native Renilla gene)) of the same molecule?
Its fold induction is 8.

And the fold induction ([3]; pRG-tk (final, synthetic Renilla gene))?
The fold induction was 0.88.

And the fold induction ([3]; pRG-tk (native Renilla gene))?
Its fold induction is 4.36.

And the fold induction ([3]; pRL-tk (native Renilla gene))?
The fold induction was 4.4.

With O=C(O)[C@H]1CSC(c2nc3ccc(O)cc3s2)=N1 [luciferin] as the molecule, how does the Km ([1]; read-out: KM (LH2)) read?
Its Km is 24.5 µM.

And the Km ([4]; independent experiment 1)?
The Km was 8 µM.

What about the Km ([4]; independent experiment 2) of the same molecule?
The Km was 10 µM.

And the Km ([5]; independent experiment 1)?
Its Km is 13 µM.

And the Km ([5]; independent experiment 2)?
Its Km is 13 µM.

What about the Km ([6]; independent experiment 1) of the same molecule?
Its Km is 20 µM.

What about the Km ([6]; independent experiment 2) of the same molecule?
The Km was 23 µM.

What about the Km ([6]; independent experiment 3) of the same molecule?
Its Km is 23 µM.

What about the “luciferin K, fold higher” value ([6]; relative to GRver5.1) of the same molecule?
The value was “approximately 40 fold”.

What about the “Km for luciferin, fold higher” value ([6]; relative to RDver5.2) of the same molecule?
The value was “about 2 fold”.

And the Km ([7]; prep #1, independent experiment 1)?
Its Km is 12 µM.

What about the Km ([7]; prep #1, independent experiment 2) of the same molecule?
The Km was 14 µM.

What about the Km ([7]; prep #1, independent experiment 3) of the same molecule?
The Km was 14 µM.

And the Km ([7]; prep #2, independent experiment 1)?
Its Km is 40 µM.

What about the Km ([7]; prep #2, independent experiment 2) of the same molecule?
The Km was 50 µM.

And the “KM for luciferin compared to the wild type” value [2]?
The value was “lower”.

B1: click beetle (Pyrophorus plagiophthalamus) luciferase YG#81-6G01 (YG parent, mutant of wild type LucPplYG), SEQ ID NO: 24 (Pyrophorus plagiophthalamus; … (protein)
chain: MMKREKNVIYGPEPLHPLEDLTAGEMLFRALRKHSHLPQALVDVVGDESLSYKEFFEATVLLAQSLHNCGYKMNDVVSICAENNTRFFIPVIAAWYIGMIVAPVNESYIPDELCKVMGISKPQIVFTTKNILNKVLEVQSRTNFIKRIIILDTVENIHGCESLPNFISRYSDGNIANFKPLHFDPVEQVAAILCSSGTTGLPKGVMQTHQNICVRLIHALDPRAGTQLIPGVTVLVYLPFFHAFGFSITLGYFMVGLRVIMFRRFDQEAFLKAIQDYEVRSVINVPSVILFLSKSPLVDKYDLSSLRELCCGAAPLAKEVAEVAAKRLNLPGIRCGFGLTESTSANIHSLRDEFKSGSLGRVTPLMAAKIADRETGKALGPNQVGELCIKGPMVSKGYVNNVEATKEAIDDDGWLHSGDFGYYDEDEHFYVVDRYKELIKYKGSQVAPAELEEILLKNPCIRDVAVVGIPDLEAGELPSAFVVKQPGKEITAKEVYDYLAERVSHTKYLRGGVRFVDSIPRNVTGKITRKELLKQLLEKAGG
notes: wild-type residues 540-543 replaced by 3 other residues
Which Km [8] does the source give for B1 here?
Its Km is 17 μM μM.

What about the Km [9] of the same molecule?
Its Km is 2 μM μM.

B2: synthetic green click beetle luciferase GR (GRver5.1; YG#81-6G01 variant A224V), SEQ ID NO: 31 (Pyrophorus plagiophthalamus; … (protein)
chain: MMKREKNVIYGPEPLHPLEDLTAGEMLFRALRKHSHLPQALVDVVGDESLSYKEFFEATVLLAQSLHNCGYKMNDVVSICAENNTRFFIPVIAAWYIGMIVAPVNESYIPDELCKVMGISKPQIVFTTKNILNKVLEVQSRTNFIKRIIILDTVENIHGCESLPNFISRYSDGNIANFKPLHFDPVEQVAAILCSSGTTGLPKGVMQTHQNICVRLIHALDPRVGTQLIPGVTVLVYLPFFHAFGFSITLGYFMVGLRVIMFRRFDQEAFLKAIQDYEVRSVINVPSVILFLSKSPLVDKYDLSSLRELCCGAAPLAKEVAEVAAKRLNLPGIRCGFGLTESTSANIHSLRDEFKSGSLGRVTPLMAAKIADRETGKALGPNQVGELCIKGPMVSKGYVNNVEATKEAIDDDGWLHSGDFGYYDEDEHFYVVDRYKELIKYKGSQVAPAELEEILLKNPCIRDVAVVGIPDLEAGELPSAFVVKQPGKEITAKEVYDYLAERVSHTKYLRGGVRFVDSIPRNVTGKITRKELLKQLLEKAGG
notes: C-terminal tail changed
For B2, which Km [10] is on record?
The Km was 25 μM μM.

What about the Km [11] of the same molecule?
Its Km is 1.3 μM μM.

B3: synthetic green click beetle luciferase GRver5.1 (YG#81-6G01 variant A224V), SEQ ID NO: 31 (Pyrophorus plagiophthalamus; … (protein)
chain: MMKREKNVIYGPEPLHPLEDLTAGEMLFRALRKHSHLPQALVDVVGDESLSYKEFFEATVLLAQSLHNCGYKMNDVVSICAENNTRFFIPVIAAWYIGMIVAPVNESYIPDELCKVMGISKPQIVFTTKNILNKVLEVQSRTNFIKRIIILDTVENIHGCESLPNFISRYSDGNIANFKPLHFDPVEQVAAILCSSGTTGLPKGVMQTHQNICVRLIHALDPRVGTQLIPGVTVLVYLPFFHAFGFSITLGYFMVGLRVIMFRRFDQEAFLKAIQDYEVRSVINVPSVILFLSKSPLVDKYDLSSLRELCCGAAPLAKEVAEVAAKRLNLPGIRCGFGLTESTSANIHSLRDEFKSGSLGRVTPLMAAKIADRETGKALGPNQVGELCIKGPMVSKGYVNNVEATKEAIDDDGWLHSGDFGYYDEDEHFYVVDRYKELIKYKGSQVAPAELEEILLKNPCIRDVAVVGIPDLEAGELPSAFVVKQPGKEITAKEVYDYLAERVSHTKYLRGGVRFVDSIPRNVTGKITRKELLKQLLEKAGG
notes: C-terminal tail changed; lysate of bacterial cells
Which Km ([12]; other: prep #1, CCLR lysate diluted 1:10, HEPES pH 7.8) does the source give for B3 here?
The Km was 0.5 µM.

And the Km ([12]; other: prep #2, CCLR lysate diluted 1:10, HEPES pH 7.8)?
The Km was 3 µM.
